Results taken from patent US8937072B2, “Substituted cyanoaniline compounds, preparation and use thereof” (Sinochem Corporation, priority 2011, dated 2015).

System: cucumber gray mold
Assay: Activity in vitro (96-well, High Through Put): inhibition rate against cucumber gray mold
Type: cell-based
Conditions: 0.3 mg/L
Procedure: The method is as followed: High Through Put is used in the test. The compound is dissolved in a proper solvent to become a testing solution whose concentration is designed. The solvent is selected from acetone, methanol, DMF and so on according to their dissolving capability to the sample. In a no animalcule condition, the testing solution and pathogens suspension are added into the cells of 96 cells culture board, which then should be placed in the constant temperature box. 24 hours later, pathogen germination or growth can be investigated by eyeballing, and the activity in vitro of the compound is evaluated based on germination or growth of control treatment.

Row | Compound | inhibition at 0.3 µg/mL | the inhibition rate against cucumber gray mold (%)
1 | N#Cc1c(F)c(F)c(Nc2c(Cl)c(F)nc(F)c2Cl)c(F)c1C#N [KC28] | 0% | 
2 | N#Cc1c(Cl)c(Cl)c(C#N)c(Nc2c(F)cc([N+](=O)[O-])cc2F)c1Cl [Compound C-45] |  | 100%
3 | CN(C)c1ccc(Nc2c(Cl)c(Cl)c(C#N)c(Cl)c2C#N)cc1 [KC23] | 0% | 

Same assay, conditions: 0.9 mg/L

Row | Compound | the inhibition rate against cucumber gray mold (%)
4 | N#Cc1c(Cl)c(Cl)c(C#N)c(Nc2c(F)cc([N+](=O)[O-])cc2F)c1Cl [Compound C-45] | 100%
5 | N#Cc1cc(Cl)c(Nc2c(Cl)c(Cl)c(C#N)c(Cl)c2C#N)c(Cl)c1 [Compound B-51] | 80%

Same assay, conditions: 0.9 mg/L; read-out: the inhibition rate against cucumber gray mold (%)

Row | Compound | inhibition at 0.9 µg/mL
6 | N#Cc1c(F)c(F)c(Nc2c(Cl)c(F)nc(F)c2Cl)c(F)c1C#N [KC28] | 0%
7 | CN(C)c1ccc(Nc2c(Cl)c(Cl)c(C#N)c(Cl)c2C#N)cc1 [KC23] | 0%

Same assay, conditions: 2.8 mg/L

Row | Compound | the inhibition rate against cucumber gray mold (%)
8 | N#Cc1c(Cl)c(Cl)c(C#N)c(Nc2c(F)cc([N+](=O)[O-])cc2F)c1Cl [Compound C-45] | 100%
9 | N#Cc1cc(Cl)c(Nc2c(Cl)c(Cl)c(C#N)c(Cl)c2C#N)c(Cl)c1 [Compound B-51] | 80%

Same assay, conditions: 2.8 mg/L; read-out: the inhibition rate against cucumber gray mold (%)

Row | Compound | inhibition at 2.8 µg/mL
10 | N#Cc1c(F)c(F)c(Nc2c(Cl)c(F)nc(F)c2Cl)c(F)c1C#N [KC28] | 0%
11 | CN(C)c1ccc(Nc2c(Cl)c(Cl)c(C#N)c(Cl)c2C#N)cc1 [KC23] | 0%

Same assay, conditions: 8.3 mg/L

Row | Compound | the inhibition rate against cucumber gray mold (%)
12 | N#Cc1c(Cl)c(Cl)c(C#N)c(Nc2c(F)cc([N+](=O)[O-])cc2F)c1Cl [Compound C-45] | 100%
13 | N#Cc1cc(Cl)c(Nc2c(Cl)c(Cl)c(C#N)c(Cl)c2C#N)c(Cl)c1 [Compound B-51] | 100%

Same assay, conditions: 8.3 mg/L; read-out: the inhibition rate against cucumber gray mold (%)

Row | Compound | inhibition at 8.3 µg/mL
14 | N#Cc1c(F)c(F)c(Nc2c(Cl)c(F)nc(F)c2Cl)c(F)c1C#N [KC28] | 0%
15 | CN(C)c1ccc(Nc2c(Cl)c(Cl)c(C#N)c(Cl)c2C#N)cc1 [KC23] | 0%

Same assay, conditions: in vitro, dose 8.3 mg/L; read-out: inhibition rate against cucumber gray mold

Row | Compound | inhibition at 8.3 µg/mL
16 | N#Cc1c(F)c(F)c(Nc2c(Cl)c(F)nc(F)c2Cl)c(F)c1C#N [KC28] | 0%

Same assay, conditions: in vitro, dose 25 mg/L

Row | Compound | inhibition at 25 µg/mL
17 | N#Cc1c(F)c(F)c(Nc2c(Cl)c(F)nc(F)c2Cl)c(F)c1C#N [KC28] | 80%
18 | CN(C)c1ccc(Nc2c(Cl)c(Cl)c(C#N)c(Cl)c2C#N)cc1 [KC23] | 0%

System: cucumber downy mildew
Assay: Protectant activity in vivo (whole plant) against cucumber downy mildew
Conditions: 12.5 mg/L
How it was run: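 Compound stock in organic solvent (≤5% v/v) diluted in water with 0.1% Tween-80 and sprayed onto whole host plants. Fungal inoculation 24 h later; humidity chamber then greenhouse as the pathogen requires. Activity rated visually, usually after 7 days.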

Row | Compound | the protectant activity (%) against cucumber downy mildew
19 | N#Cc1c(Cl)c(Cl)c(Nc2ccc(C(F)(F)F)cc2Cl)c(C#N)c1Cl [Compound B-28] | 20%

Same assay, conditions: 25 mg/L

Row | Compound | the protectant activity (%) against cucumber downy mildew
20 | CN(C)c1c(Cl)c(Nc2c(Cl)cc([N+](=O)[O-])cc2Cl)c(C#N)c(Cl)c1C#N [Compound B-73] | 50%
21 | N#Cc1c(Cl)c(Cl)c(Nc2ccc(C(F)(F)F)cc2Cl)c(C#N)c1Cl [Compound B-28] | 80%

Same assay, conditions: 50 mg/L

Row | Compound | the protectant activity (%) against cucumber downy mildew
22 | CN(C)c1c(Cl)c(Nc2c(Cl)cc([N+](=O)[O-])cc2Cl)c(C#N)c(Cl)c1C#N [Compound B-73] | 100%
23 | N#Cc1c(Cl)c(Cl)c(Nc2ccc(C(F)(F)F)cc2Cl)c(C#N)c1Cl [Compound B-28] | 98%

Same assay, conditions: 100 mg/L

Row | Compound | the protectant activity (%) against cucumber downy mildew
24 | CN(C)c1c(Cl)c(Nc2c(Cl)cc([N+](=O)[O-])cc2Cl)c(C#N)c(Cl)c1C#N [Compound B-73] | 100%
25 | N#Cc1c(Cl)c(Cl)c(Nc2ccc(C(F)(F)F)cc2Cl)c(C#N)c1Cl [Compound B-28] | 100%

Same assay, conditions: dose 50 mg/L

Row | Compound | protectant activity against cucumber downy mildew in vivo
26 | CN(C)c1c(Cl)c(Nc2c(Cl)cc([N+](=O)[O-])cc2Cl)c(C#N)c(Cl)c1C#N [Compound B-73] | 100%
27 | N#Cc1c(Cl)c(Cl)c(Nc2ccc(C(F)(F)F)cc2Cl)c(C#N)c1Cl [Compound B-28] | 98%

Same assay, conditions: dose 100 mg/L

Row | Compound | protectant activity against cucumber downy mildew in vivo
28 | CN(C)c1c(Cl)c(Nc2c(Cl)cc([N+](=O)[O-])cc2Cl)c(C#N)c(Cl)c1C#N [Compound B-73] | 100%
29 | N#Cc1c(Cl)c(Cl)c(Nc2ccc(C(F)(F)F)cc2Cl)c(C#N)c1Cl [Compound B-28] | 100%

Same assay, conditions: dose 400 mg/L

Row | Compound | protectant activity against cucumber downy mildew in vivo
30 | CN(C)c1c(Cl)c(Nc2c(Cl)cc([N+](=O)[O-])cc2Cl)c(C#N)c(Cl)c1C#N [Compound B-73] | 100%
31 | N#Cc1c(Cl)c(Cl)c(Nc2ccc(C(F)(F)F)cc2Cl)c(C#N)c1Cl [Compound B-28] | 100%

System: rice blast
Assay: microbe, parasite or virus in culture
Type: cell-based
Conditions: Pyricularia oryzae, read-out: inhibition rate against rice blast

Row | Compound | inhibition at 2.8 µg/mL | inhibition at 8.3 µg/mL | inhibition at 25 µg/mL
32 | N#Cc1c(F)c(F)c(Nc2c(Cl)c(F)nc(F)c2Cl)c(F)c1C#N [KC28] | 0% | 50% | 80%
33 | CN(C)c1ccc(Nc2c(Cl)c(Cl)c(C#N)c(Cl)c2C#N)cc1 [KC23] |  |  | 0%

Same assay, conditions: Pyricularia oryzae, read-out: the inhibition rate against rice blast (%) 0.03 mg/L

Row | Compound | inhibition at 0.03 µg/mL
34 | N#Cc1c(F)c(F)c(Nc2c(Cl)c(F)nc(F)c2Cl)c(F)c1C#N [KC28] | 0%
35 | CN(C)c1ccc(Nc2c(Cl)c(Cl)c(C#N)c(Cl)c2C#N)cc1 [KC23] | 0%

Same assay, conditions: Pyricularia oryzae, read-out: the inhibition rate against rice blast (%) 0.1 mg/L

Row | Compound | inhibition at 0.1 µg/mL
36 | N#Cc1c(F)c(F)c(Nc2c(Cl)c(F)nc(F)c2Cl)c(F)c1C#N [KC28] | 0%
37 | CN(C)c1ccc(Nc2c(Cl)c(Cl)c(C#N)c(Cl)c2C#N)cc1 [KC23] | 0%

Same assay, conditions: Pyricularia oryzae, read-out: the inhibition rate against rice blast (%) 0.3 mg/L

Row | Compound | inhibition at 0.3 µg/mL
38 | N#Cc1c(F)c(F)c(Nc2c(Cl)c(F)nc(F)c2Cl)c(F)c1C#N [KC28] | 0%
39 | CN(C)c1ccc(Nc2c(Cl)c(Cl)c(C#N)c(Cl)c2C#N)cc1 [KC23] | 0%

Same assay, conditions: Table 21, 0.03 mg/L

Row | Compound | the inhibition rate against rice blast (%) 0.03 mg/L
40 | CN(C)c1c(Cl)c(Nc2c(Cl)cc([N+](=O)[O-])cc2Cl)c(C#N)c(Cl)c1C#N [Compound B-73] | 0%
41 | N#Cc1c(Cl)c(Cl)c(C#N)c(Nc2c(F)cc([N+](=O)[O-])cc2F)c1Cl [Compound C-45] | 100%
42 | N#Cc1cc(Cl)c(Nc2c(Cl)c(Cl)c(C#N)c(Cl)c2C#N)c(Cl)c1 [Compound B-51] | 0%
43 | N#Cc1c(Cl)c(Cl)c(Nc2ccc(C(F)(F)F)cc2Cl)c(C#N)c1Cl [Compound B-28] | 80%

Same assay, conditions: Table 21, 0.1 mg/L

Row | Compound | the inhibition rate against rice blast (%) 0.1 mg/L
44 | CN(C)c1c(Cl)c(Nc2c(Cl)cc([N+](=O)[O-])cc2Cl)c(C#N)c(Cl)c1C#N [Compound B-73] | 0%
45 | N#Cc1c(Cl)c(Cl)c(C#N)c(Nc2c(F)cc([N+](=O)[O-])cc2F)c1Cl [Compound C-45] | 100%
46 | N#Cc1cc(Cl)c(Nc2c(Cl)c(Cl)c(C#N)c(Cl)c2C#N)c(Cl)c1 [Compound B-51] | 50%
47 | N#Cc1c(Cl)c(Cl)c(Nc2ccc(C(F)(F)F)cc2Cl)c(C#N)c1Cl [Compound B-28] | 100%

Same assay, conditions: Table 21, 0.3 mg/L

Row | Compound | the inhibition rate against rice blast (%) 0.3 mg/L
48 | CN(C)c1c(Cl)c(Nc2c(Cl)cc([N+](=O)[O-])cc2Cl)c(C#N)c(Cl)c1C#N [Compound B-73] | 80%
49 | N#Cc1c(Cl)c(Cl)c(C#N)c(Nc2c(F)cc([N+](=O)[O-])cc2F)c1Cl [Compound C-45] | 100%
50 | N#Cc1cc(Cl)c(Nc2c(Cl)c(Cl)c(C#N)c(Cl)c2C#N)c(Cl)c1 [Compound B-51] | 100%
51 | N#Cc1c(Cl)c(Cl)c(Nc2ccc(C(F)(F)F)cc2Cl)c(C#N)c1Cl [Compound B-28] | 100%

Same assay, conditions: in vitro, dose 0.3 mg/L

Row | Compound | inhibition rate against rice blast
52 | CN(C)c1c(Cl)c(Nc2c(Cl)cc([N+](=O)[O-])cc2Cl)c(C#N)c(Cl)c1C#N [Compound B-73] | 80%

System: corn rust
Assay: Protectant activity in vivo (whole plant) against corn rust
Conditions: 6.25 mg/L
Procedure: The method is as followed: The whole plant is used in this test. The compound is dissolved in a proper solvent to get mother solution. The proper solvent is selected from acetone, methanol, DMF and so on according to their dissolving capability to the sample. The volume rate of solvent and testing solution (v/v) is equal to or less than 5%. The mother solution is diluted with water containing 0.1% tween-80 to get the testing solution whose concentration is designed. The testing solution is sprayed to the host plant by a special plant sprayer. The plant is inoculated with fungus after 24 hours. According to the infecting characteristic of fungus, the plant is stored in a humidity chamber and then transferred into greenhouse after infection is finished. And the other plants are placed in greenhouse directly. The activity of compound is obtained by eyeballing after 7 days in common.

Row | Compound | the protectant activity (%) against corn rust
53 | CN(C)c1c(Cl)c(Nc2c(Cl)cc([N+](=O)[O-])cc2Cl)c(C#N)c(Cl)c1C#N [Compound B-73] | 30%

Same assay, conditions: 25 mg/L

Row | Compound | the protectant activity (%) against corn rust
54 | CN(C)c1c(Cl)c(Nc2c(Cl)cc([N+](=O)[O-])cc2Cl)c(C#N)c(Cl)c1C#N [Compound B-73] | 70%

Same assay, conditions: 100 mg/L

Row | Compound | the protectant activity (%) against corn rust
55 | CN(C)c1c(Cl)c(Nc2c(Cl)cc([N+](=O)[O-])cc2Cl)c(C#N)c(Cl)c1C#N [Compound B-73] | 100%

Same assay, conditions: 400 mg/L

Row | Compound | the protectant activity (%) against corn rust
56 | CN(C)c1c(Cl)c(Nc2c(Cl)cc([N+](=O)[O-])cc2Cl)c(C#N)c(Cl)c1C#N [Compound B-73] | 98%

Same assay, conditions: dose 100 mg/L

Row | Compound | protectant activity against corn rust in vivo
57 | CN(C)c1c(Cl)c(Nc2c(Cl)cc([N+](=O)[O-])cc2Cl)c(C#N)c(Cl)c1C#N [Compound B-73] | 100%

Same assay, conditions: dose 400 mg/L

Row | Compound | protectant activity against corn rust in vivo
58 | CN(C)c1c(Cl)c(Nc2c(Cl)cc([N+](=O)[O-])cc2Cl)c(C#N)c(Cl)c1C#N [Compound B-73] | 100%
